In patent US6420570B1, “Psoralen compounds” (priority 1993, dated 2002):
Structures can show the parent of a compound that is named as a salt. Where two headings read alike, the source gives them in different places.

What was measured:
TA1538 = test: Ames assay, dark mutagenicity, strain TA1538
Protocol: In this example the compounds of the present invention are tested for their dark mutagenicity using an Ames assay. The procedures used for the Salmonella mutagenicity test as described in detail by Maron and Ames were followed exactly. Maron, D. M. and B. N. Ames, Mutation Research 113:173 (1983). A brief description for each procedure is given here. The tester strains TA97a, TA98, TA100, TA102, TA1537 and TA1538 were obtained from Dr. Ames. TA97a, TA98, TA1537 and TA1538 are frameshift tester strains. TA100 and TA102 are base-substitution tester strains. Upon receipt each strain was cultured under a variety of conditions to confirm the genotypes specific to the strains.
The first tests done with the strains were to determine the range of spontaneous reversion for each of the strains. With each mutagenicity experiment the spontaneous reversion of the tester strains to histidine independence was measured and expressed as the number of spontaneous revertants per plate. This served as the background controls.
For all experiments, the pre-incubation procedure was used. In this procedure one vial of each tester strain was thawed and 20 μL of this culture was added to 6 mL of Oxoid Nutrient Broth #2. This solution was allowed to shake for 10 hours at 37° C. In the pre-incubation procedure, 0.1 mL of this overnight culture was added to each of the required number of sterile test tubes. To half of the tubes 0.5 mL of a 10% S-9 solution containing Aroclor 1254 induced rat liver extract (Molecular Toxicology Inc., Annapolis, MD), and MgCl2, KCl, glucose-6-phosphate, NADP, and sodium phosphate buffer (Sigma, St. Louis. Mo.) were added. To the other half of the tubes 0.5 mL of 0.2M sodium phospate buffer, pH 7.4, was used in place of the S-9 mixture (the -S9 samples) Finally 0.1 mL of the test solution containing either 0.0.1, 0.5, 1, 5, 10, 50, 100, 250, or 500 μg/mL of the test compound was added. The 0.7 mL mixture pre-incubated while shaking for 20 minutes at 37° C. After shaking, 2 mL of molten top agar supplemented with histidine and biotin were added to the 0.7 mL mixture and immediately poured onto a minimal glucose agar plate (volume of base agar was 20 ml.). The top agar was allowed 30 minutes to solidify and then the plates were inverted and incubated for 44 hours at 37° C. After incubation the number of revertant colonies on each plate were counted. […] (“n” represents the number of replicates performed for each data point.)
Maron and Ames (1983) describe the conflicting views with regard to the statistical treatment of data generated from the test.

cell-free virus (HIV) = assay type: cell-based; details: 1 minute irradiation
Protocol: Pathogen inactivation efficiency of several compounds of the present invention was evaluated by examining the ability of the compounds to inactivate cell-free virus (HIV). Inactivation of cell-free HIV was performed as follows.
As in the R17 assay, small aliquots of the compounds listed in TABLES 8 and 9, below, at the concentrations listed in the table, were added to stock HIV-1 to a total of 0.5 mL. The stock HIV (10^5-10^7 plaque forming units/mL) was in DMEM/15% FBS. […] Controls included HIV-1 stock only, HIV-1 plus UVA only, and HIV-1 plus the highest concentration of each psoralen tested, with no UVA. Post irradiation, all samples were stores frozen at −70° C. until assayed for infectivity by a microtiter plaque assay. Aliquots for measurement of residual HIV infectivity in the samples treated with a compound of the present invention were withdrawn and cultured.
Residual HIV infectivity was assayed using an MT-2 infectivity assay. […] The assay medium was 85% DMEM (with a high glucose concentration) containing 100 μg of streptomycin, 100 U of penicillin, 50 μg of gentamicin, and 1 μg of amphotericin B per mL, 15% FBS and 2 μg of Polybrene (Sigma Chemical Co., St. Louis, Mo.) per mL. Test and control samples from the inactivation procedure were diluted in 50% assay medium and 50% normal human pooled plasma. The samples were serially diluted directly in 96-well plates (Corning Glass Works, corning, N.Y.). The plates were mixed on an oscillatory shaker for 30 seconds and incubated at 37° C. in a 5% CO2 atmosphere for 1 to 18 hours. […] After an additional 1 hour of incubation at 37° C. in 5% CO2, 0.075 mL of assay medium containing 1.6% SeaPlaque agarose (FMC Bioproducts, Rockland, me.) and prewarmed to 38.5° C. was added to each well. The plates were kept at 37° C. for a few minutes until several plates had accumulated and then centrifuged in plate carriers at 600×g for 20 minutes in a centrifuge precooled to 10° C. In the centrifuge, cell monolayers formed prior to gelling of the agarose layer. The plates were incubated for 5 days at 37° C. in 5% CO2 and stained by the addition of 0.05 mL of 50 μg/mL propidium iodide (Sigma Chemical Co.) in phosphate-buffered saline (pH 7.4) to each well. After 24 to 48 hours, the red fluorescence-stained microplaques were visualized by placing the plates on an 8,000 μW/cm^2 304 nm UV light box (Fotodyne, Inc., New Berlin, Wis.). The plaques were counted at a magnification of ×20 to ×25 through a stereomicroscope. “n” represents the number of runs for which the data point is an average.

[1] = Table 8, HIV starting titer approximately 5 logs
[2] = Table 9, HIV starting titer approximately 5.4 logs

## Cc1oc2c(C)c3oc(=O)cc(C)c3cc2c1CNCCCCN [Compound 6, 4′-(6-Aminohexyl-2-aza)-4,5′,8-trimethylpsoralen Dihydrochloride]
TA1538; TA1538 +S9, 5 μg/plate
  revertant colonies per plate: 0
TA1538; TA1538 +S9, 10 μg/plate
  revertant colonies per plate: 8
TA1538; TA1538 −S9, 5 μg/plate
  revertant colonies per plate: −5
cell-free virus (HIV); [1]
  HIV Log Kill 16 μM: 2.0 log
  HIV Log Kill 32 μM: 3.1 log
  HIV Log Kill 64 μM: >3.8 log
cell-free virus (HIV); [2]
  HIV Log Kill 16 μM: 2.1 log
  HIV Log Kill 32 μM: 3.2 log
  HIV Log Kill 64 μM: >2.8 log
